Experimental data reported in patent US9737504B2, “Dihydroorotic and acid dehydrogenase inhibitor” (NAI INC., priority 2012, dated 2017).
pIC50: −log10 of the molar value. Where two headings read alike, the source gives them in different places.

Assays:
human DHOD [1] = molecular target: T1, human DHOD (Homo sapiens, UniProt Q02127); test: Measurement of DHOD inhibitory activity (DCIP reduction, end point assay); assay type: biochemical; conditions: for inhibition at 0.2 µM: read-out: DHOD inhibition rate (%) 200 nM, 200 nM compound; for IC50: read-out: IC50 (nM) human DHOD (HsDHOD)
Procedure: The compounds of the present invention were used and measured for their DHOD inhibitory activity at concentrations of 200 nM and 1000 nM.
Reduction of DCIP was measured at 600 nm over 20 minutes.

human DHOD [2] = molecular target: T1, human DHOD; test: as above; assay type: biochemical; conditions: read-out: DHOD inhibition rate (%) 100 nM; 100 nM compound
KM-12 = test: JFCR39 cancer cell growth inhibition test, KM-12; assay type: cell-based; conditions: Homo sapiens, KM12; KM-12, Co (Colon)
[3] = tested on: HDF cells (human dermal fibroblast cells); test: Inhibitory effect on HDF cells, control vs hypoxic and subnutritional conditions; assay type: cell-based; conditions: for Selectivity = 21% glc(+)gln(+) IC50/1% glc(−)gln(−) IC50: HDF; for IC50: Homo sapiens, HDF normal skin cells
Procedure: (§1) For these reasons, cells of colorectal and pancreatic cancers, each being regarded as intractable, were used to test the inhibitory effect of compounds under hypoxic and subnutritional conditions. Moreover, the same test was also performed on normal skin cells.
The cells used were two types of cancer cells, i.e., DLD-1 cells (human colorectal cancer cells) and Panc-1 cells (human pancreatic cells), as well as HDF cells (human dermal fibroblast cells).

OVCAR-8 = test: JFCR39 cancer cell growth inhibition test, OVCAR-8; assay type: cell-based; conditions: Homo sapiens; OVCAR-8, Ov (Ovarian)
[4] = tested on: DLD-1 cells (human colorectal cancer cells); test: Inhibitory effect on DLD-1 cells, control vs hypoxic and subnutritional conditions; assay type: cell-based; conditions: for IC50: Homo sapiens
Procedure: as §1
The cells used were two types of cancer cells, i.e., DLD-1 cells (human colorectal cancer cells) and Panc-1 cells (human pancreatic cells), as well as HDF cells (human dermal fibroblast cells). Culture conditions were set as follows: 21% oxygen with glucose and […] (10% FBS) for the control group, and 1% oxygen without glucose and […] (10% FBS) for the hypoxic and subnutritional group. The results obtained are shown in Tables 3, 4 and 5, as well as FIGS. 1, 2 and 3.

bovine complex II-III = test: Inhibition of bovine complex II-III; assay type: biochemical
L0X-IMVI = test: JFCR39 cancer cell growth inhibition test, L0X-IMVI; assay type: cell-based; conditions: Homo sapiens, Me (Melanoma)
MKN28 = test: JFCR39 cancer cell growth inhibition test, MKN28; assay type: cell-based; conditions: Homo sapiens, MKN-28; MKN28, St (Stomac)
HCC2998 = test: JFCR39 cancer cell growth inhibition test, HCC2998; assay type: cell-based; conditions: Homo sapiens, HCC 2998; HCC2998, Co (Colon)
MKN74 = test: JFCR39 cancer cell growth inhibition test, MKN74; assay type: cell-based; conditions: Homo sapiens, MKN-74; MKN74, St (Stomac)
[5] = tested on: human MX-1 breast, LX-1 lung, BL/STX-1 stomach and CX-1 colon carcinomas; conditions: nude mice, 20 to 40 mg/kg/day; MX-1, LX-1, BL/STX-1, CX-1; cited from earlier work
DLD-2 colon cancer = conditions: in vivo; cited from earlier work
UMP levels = conditions: after treatment with 25 μM NSC368390; cited from earlier work
[6] = read-out: IC50 DLD-1 [μM] 1% O2 glc(−)gln(−), DLD-1, 1% O2 glc(−)gln(−), 24 hours
[7] = read-out: IC50 DLD-1 [μM] 1% O2 glc(−)gln(−), DLD-1, 1% O2 glc(−)gln(−), 48 hours
[8] = read-out: IC50 [μM] 1% O2 glc(−)gln(−), 1% O2 glc(−)gln(−)

T1 sequence (Q02127 whole entry): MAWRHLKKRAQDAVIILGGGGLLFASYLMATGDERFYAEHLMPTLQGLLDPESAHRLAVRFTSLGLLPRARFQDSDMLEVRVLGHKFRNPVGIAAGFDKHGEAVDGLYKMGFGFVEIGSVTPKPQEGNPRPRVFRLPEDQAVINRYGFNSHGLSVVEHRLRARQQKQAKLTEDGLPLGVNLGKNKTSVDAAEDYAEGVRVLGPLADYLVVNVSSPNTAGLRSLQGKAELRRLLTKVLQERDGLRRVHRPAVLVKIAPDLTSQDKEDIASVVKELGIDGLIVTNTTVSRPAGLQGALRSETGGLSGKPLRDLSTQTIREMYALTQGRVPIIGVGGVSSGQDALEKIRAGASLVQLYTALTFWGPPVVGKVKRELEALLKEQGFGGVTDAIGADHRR

Compound | inhibition at 0.2 µM (human DHOD [1]) [%] | IC50 (human DHOD [1]) [nM] | inhibition at 0.1 µM (human DHOD [2]) [%] | GI50 (KM-12) [nM] | Selectivity = 21% glc(+)gln(+) IC50/1% glc(−)gln(−) IC50 [3] | GI50 (OVCAR-8) [nM] | Selectivity = 21% glc(+)gln(+) IC50/1% glc(−)gln(−) IC50 ([4]; DLD-1, 24 hours) | Selectivity = 21% glc(+)gln(+) IC50/1% glc(−)gln(−) IC50 ([4]; DLD-1, 48 hours) | IC50 [4, 6] [µM] | IC50 [4, 7] [µM] | pIC50 (bovine complex II-III) | IC50 [3, 8] [µM] | GI50 (MKN74) [nM] | further results
C/C(=C\Cc1c(O)c(Cl)c(C)c(C=O)c1O)CC/C=C(\C)C(C)O (stereo not drawn) [277-9-OH, 3-Chloro-4,6-dihydroxy-2-methyl-5-(2E,6E)-(8-hydroxy-3,7-dimethyl-2,6-nonadienyl)benzaldehyde] | 75 | 64 | 107 | 32000 | – | – | – | – | – | – | – | – | – | –
COC(=O)/C(C)=C/CC/C(C)=C/Cc1c(O)c(Cl)c(C)c(C=O)c1O [275-10-COOMe, Methyl (2E,6E)-8-(3-chloro-5-formyl-2,6-dihydroxy-4-methyl)phenyl-2,6-dimethyl-2,6-octa dienoate] | 100 | 4.2 | 100 | 6400 | >32 | 4400 | >59 | >156 | 1.7 | 0.64 | 5.72 | – | – | –
CC(=O)OC(C)/C(C)=C/CC/C(C)=C/Cc1c(O)c(Cl)c(C)c(C=O)c1O (stereo not drawn) [277-11-OAc, (3E,7E)-9-(3-Chloro-5-formyl-2,6-dihydroxy-4-methyl)phenyl-3,7-dimethyl-3,7-nonadien-2-yl acetate] | 97 | 6.5 | 103 | 5700 | >25 | – | >53 | >109 | 1.9 | 0.92 | 5.35 | 4 | – | GI50 (L0X-IMVI): 1500 nM
C/C(=C\COC(=O)C(C)C)CC/C(C)=C/Cc1c(O)c(Cl)c(C)c(C=O)c1O [287-12-OCOiPr, (2E,6E)-8-(3-Chloro-5-formyl-2,6-dihydroxy-4-methylphenyl)-3,6-dimethyl-2,6-octa dienyl isobutylate] | 101 | 21.5 | 109 | 10000 | – | 9100 | – | – | – | – | – | – | 14000 | GI50 (MKN28): 10000 nM; GI50 (HCC2998): 15000 nM; melting point: 62 to 63 °C
Cc1c(-c2ccc(-c3ccccc3F)cc2)nc2ccc(F)cc2c1C(=O)[O-].[Na+] [NSC368390, 6-Fluoro-2-(2′-fluoro-1,1′-biphenyl-4-yl)-3-methyl-4-quinolinecarboxylic Acid Sodium Salt] | – | – | – | – | – | – | – | – | – | – | – | – | – | inhibition of the growth of human carcinomas [5]: ≥ 90%; growth inhibition of DLD-2 colon cancer (DLD-2 colon cancer): 98%; reduction of UMP levels (UMP levels): 50%
CC(C)=CCC/C(C)=C/CC/C(C)=C/Cc1c(O)c(Cl)c(C)c(C=O)c1O [280-12, (E,E)-3-Chloro-4,6-dihydroxy-5-(3,7,11-trimethyl-2,6,10-dodecatienyl)-2-methylbenzaldehyde] | 104 | 6 | 94 | 2000 | 353 | – | 1100 | 1480 | 0.069 | 0.025 | 6.59 | 0.17 | 1300 | IC50 ([3]; 21% O2 glc(+)gln(+), read-out: IC50 [μM] 21% O2 glc(+)gln(+)): 60 µM; IC50 ([4]; DLD-1, 21% O2 glc(+)gln(+), 24 hours, read-out: IC50 DLD-1 [μM] 21% O2 glc(+)gln(+)): 76 µM; IC50 ([4]; DLD-1, 21% O2 glc(+)gln(+), 48 hours, read-out: IC50 DLD-1 [μM] 21% O2 glc(+)gln(+)): 37 µM
